In patent publication US20140066410A1, “INHIBITORS OF BROMODOMAINS AS MODULATORS OF GENE EXPRESSION” (ICAHN SCHOOL OF MEDICINE AT MOUNT SINAI, priority 2011, published 2014):
“Also recorded” adds a separate entry of the source.

How the values were obtained:
Assay type in all cases: cell-based
[1] = target: T1, p53 binding to CBP (Homo sapiens, UniProt Q92793); test: HA-CBP and Flag-p53 pull-down assay in HEK 293T cells; conditions: doxorubicin treatment
T1 construct: expressed in transfected cells; host or cells: HEK 293T
T1 sequence (Q92793 whole entry): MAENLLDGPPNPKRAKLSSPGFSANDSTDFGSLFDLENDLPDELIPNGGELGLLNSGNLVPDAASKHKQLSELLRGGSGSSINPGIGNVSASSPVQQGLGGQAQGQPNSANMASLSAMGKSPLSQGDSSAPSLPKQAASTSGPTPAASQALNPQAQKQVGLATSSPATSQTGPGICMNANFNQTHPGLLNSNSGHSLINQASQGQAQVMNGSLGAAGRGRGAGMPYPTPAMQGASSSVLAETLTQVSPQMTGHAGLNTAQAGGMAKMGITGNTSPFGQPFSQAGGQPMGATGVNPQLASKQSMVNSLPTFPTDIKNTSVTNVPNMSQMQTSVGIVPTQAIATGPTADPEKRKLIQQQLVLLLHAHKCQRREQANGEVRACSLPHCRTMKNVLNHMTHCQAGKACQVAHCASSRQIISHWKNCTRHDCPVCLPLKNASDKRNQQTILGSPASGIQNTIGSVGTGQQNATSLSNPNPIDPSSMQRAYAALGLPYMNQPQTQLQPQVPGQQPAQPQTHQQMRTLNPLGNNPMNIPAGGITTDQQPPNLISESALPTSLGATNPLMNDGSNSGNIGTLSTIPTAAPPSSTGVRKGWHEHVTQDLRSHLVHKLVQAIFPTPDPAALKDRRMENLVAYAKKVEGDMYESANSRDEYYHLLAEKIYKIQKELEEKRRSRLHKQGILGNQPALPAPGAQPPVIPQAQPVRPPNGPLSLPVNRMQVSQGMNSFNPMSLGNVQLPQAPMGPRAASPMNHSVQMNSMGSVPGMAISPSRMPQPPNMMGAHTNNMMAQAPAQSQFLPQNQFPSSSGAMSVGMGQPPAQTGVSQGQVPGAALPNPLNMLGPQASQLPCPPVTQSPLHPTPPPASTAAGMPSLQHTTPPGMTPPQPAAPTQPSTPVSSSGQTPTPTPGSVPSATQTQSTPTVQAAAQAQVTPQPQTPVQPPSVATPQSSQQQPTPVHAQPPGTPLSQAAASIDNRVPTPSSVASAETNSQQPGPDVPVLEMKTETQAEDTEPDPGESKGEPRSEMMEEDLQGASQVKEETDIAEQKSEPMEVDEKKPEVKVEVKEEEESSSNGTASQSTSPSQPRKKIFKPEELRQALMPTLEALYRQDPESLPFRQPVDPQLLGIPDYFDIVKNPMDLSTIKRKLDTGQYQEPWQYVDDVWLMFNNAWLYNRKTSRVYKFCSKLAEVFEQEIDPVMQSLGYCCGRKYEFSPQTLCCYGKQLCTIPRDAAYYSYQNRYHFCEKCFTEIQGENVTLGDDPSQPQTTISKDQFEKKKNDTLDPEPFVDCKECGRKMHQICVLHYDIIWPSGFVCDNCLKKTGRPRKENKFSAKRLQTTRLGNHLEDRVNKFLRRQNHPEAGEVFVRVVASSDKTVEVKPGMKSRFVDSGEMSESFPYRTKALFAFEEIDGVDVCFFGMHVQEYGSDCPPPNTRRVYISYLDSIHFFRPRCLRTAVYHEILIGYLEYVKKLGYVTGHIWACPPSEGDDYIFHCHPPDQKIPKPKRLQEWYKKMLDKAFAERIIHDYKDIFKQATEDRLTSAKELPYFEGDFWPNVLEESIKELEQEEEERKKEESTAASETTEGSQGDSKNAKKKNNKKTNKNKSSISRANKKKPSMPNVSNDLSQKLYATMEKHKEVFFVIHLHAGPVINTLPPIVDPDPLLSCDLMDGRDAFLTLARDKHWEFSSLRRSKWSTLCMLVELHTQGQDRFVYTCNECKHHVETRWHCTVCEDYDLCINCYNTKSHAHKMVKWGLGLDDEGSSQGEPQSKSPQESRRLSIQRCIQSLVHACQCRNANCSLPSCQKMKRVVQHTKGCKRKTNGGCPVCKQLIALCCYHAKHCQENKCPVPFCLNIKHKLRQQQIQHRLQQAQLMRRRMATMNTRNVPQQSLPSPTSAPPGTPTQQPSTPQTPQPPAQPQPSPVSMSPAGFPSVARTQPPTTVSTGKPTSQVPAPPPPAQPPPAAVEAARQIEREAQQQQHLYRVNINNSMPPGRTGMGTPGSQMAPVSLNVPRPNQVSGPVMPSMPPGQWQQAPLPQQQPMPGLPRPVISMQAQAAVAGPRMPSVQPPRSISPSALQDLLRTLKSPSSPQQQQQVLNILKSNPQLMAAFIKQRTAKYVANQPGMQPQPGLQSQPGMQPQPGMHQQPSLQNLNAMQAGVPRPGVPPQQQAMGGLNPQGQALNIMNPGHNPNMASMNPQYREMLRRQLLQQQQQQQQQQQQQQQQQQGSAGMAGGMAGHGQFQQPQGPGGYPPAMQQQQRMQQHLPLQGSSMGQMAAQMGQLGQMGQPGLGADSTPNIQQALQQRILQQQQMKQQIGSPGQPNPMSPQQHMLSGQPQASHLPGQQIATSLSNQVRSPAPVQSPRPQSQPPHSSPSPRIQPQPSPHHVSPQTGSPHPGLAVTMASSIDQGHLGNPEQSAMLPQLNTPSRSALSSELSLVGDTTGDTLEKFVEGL
Experimental: HA-CBP and Flag-p53 were transfected into human embryonic kidney (HEK) 293T cells with recommended amount of Fugene 6 (Roche). After transfection, the HA-CBP and Flag-p53 co-transfected cells were treated with ischemin in the presence or absence of doxorubicin. To test the inhibitory potential of ischemin against CBP and p53 association, CBP was first immuno-precipitated by pulling-down with HA-agarose beads (Sigma) and its association with p53 was then determined with western blot using anti-Flag antibody (Sigma).
It was also investigated whether ischemin down-regulates p53 by blocking p53 binding to CBP. Haemaglutinin-tagged CBP(HA-CBP) and Flag-tagged p53 (Flag-p53) was overexpressed in human embryonic kidney (HEK) 293T cells.

[2] = test system: p53; test: Immunoblot of doxorubicin-treated primary neonatal rat cardiomyocytes
Excerpt: FIG. 4. Ischemin functions a cellular protective agent against myocardial ischemic stress. (A) TUNEL assay showing ischemin inhibition of doxorubicin-induced apoptosis in rat neonatal cardiomyocytes. (B) Evaluation of ischemin effects in U20S cells and cardiomyocytes. The immunoblots show down-regulation of doxorubicin-induced activated p53 in both cell types in the presence of ischemin, while levels of H2XS139p remained the same. (C) Inhibition of doxorubicin-induced caspase 3/7 activation in cardiomyocytes by ischemin.
The latter argues that ATM is active in presence of ischemin, which is consistent with our analysis using Western blots (FIG. 2B).

[3] = test system: U20S cells; test: BRDU incorporation / cell cycle analysis
Experimental: BRDU incorporation assay for cell cycle evaluation was performed in 96 well plates using calorimetric based kit from Calbiochem (Cat# QiA58). Hundred microliter of 1×10^5/ml cells were plated in DMEM media (Mediatech) with 10% fetal bovine serum (FBS). After 12 hours cells were treated with compounds ischemin and MS 119 (50 μM) with or without doxorubicin treatment (5 μM). The controls were DMSO and untreated cells. BRDU was added for 24 hours treatment. After 24 hours cells were fixed and treated with anti-BRDU antibody. After washings, the wells were incubated with peroxidase. After final wash, the color was developed using TMB as substrate and the reaction was stopped with stop solution and optical density was estimated at 450 nm.
DNA damage induced by doxorubicin leads to p53 stimulated cellular responses including cell cycle arrest, damage repair, and apoptosis. To determine the effect of ischemin on dividing U20S cells, U20S cells were treated with 5-bromo-2-deoxyuridine (BRDU) and the incorporated BRDU during in DNA synthesis was measured using an ELISA assay.

[4] = test system: p53 target genes; test: RT-PCR array of p53 signaling pathway genes in U20S cells
Experimental: The selectivity of ischemin in transcription inhibition of p53 target genes was evaluated using a RT-PCR array analysis of RNA isolated from biological samples of U20S cells. The array was performed on RNA isolated from three different biological repeats in U20S cells using a set of primers selected for a group of genes that are known to be associated within p53 signaling pathways. The differentially expressed genes in treated related to untreated groups, i.e. doxorubicin treated versus untreated, or doxorubicin plus ischemin versus doxorubicin alone, were subjected to pathway analysis by using the Ingenuity System software. The fold changes of these genes were converted to log2Ratio and then imported into IPA tool along with gene symbols. The enriched pathways in the gene list were identified by Fisher exact test at p value of 0.05 and visualized in Canonical pathway explorer.

[5] = test system: p53; test: Western blot of doxorubicin-treated U20S cells
Experimental: U20S cells were harvested cells and lysed in lysis buffer (20 mM Tris (pH 8.0), 150 mM NaCl, 1 mM EGTA, 1% Triton X-100, and 50 mM NaF) containing protease inhibitor cocktail (Sigma). The cells were sonicated and spun down at 14,000 rpm for 30 min at 4° C. After protein estimation, 30-50 micrograms of lysates were subjected to SDS-PAGE, transferred onto nitrocellulose membranes, blocked with 5% milk/PBS and blotted with a primary antibody. Horse radish peroxidase-labeled secondary antibodies (goat anti-Mouse or anti-Rabbit) were added for 60 min at room temperature, and the blots were washed with TBS (20 mM Tris, 150 mM Nacl, and 0.05% tween −20) and subjected to autoradiography after development of reaction by ECL (GE health care).
The biochemical effects of ischemin on p53 stability and function as transcription factor was examined. U20S cells were incubated in the presence of doxorubicin with or without ischemin at concentration of 50 or 100 μM for 24 hours. Subsequently, cellular proteins were subjected to western blot analysis (as described above).
As a transcription factor, p53 ability to activate gene expression is also dependent upon chromatin modifications. Since CBP acetylates both histones and p53, the possible changes of epigenetic marks on p53 and global histones in presence of ischemin was evaluated.

[6] = ischemin 50 or 100 μM, 24 hours, U20S cells
[7] = nuclear extracts from U20S cells

Cc1cc(/N=N/c2cc(S(=O)(=O)O)c(C)cc2C)c(N)cc1O [Ischemin/MS120, 5-(2-amino-4-hydroxy-5-methylphenylazo)-2,4-dimethylbenzenesulfonic acid]
Inhibition of p53 binding to CBP [1]: inhibiting in a dose-dependent manner
Doxorubicin induced p53 activation [2]: able to inhibit
H2AX phosphorylation at Ser139 [2]: did not alter
Toxicity to U20S cells ([3]; 50 μM): not toxic
Prevention of doxorubicin-induced cell cycle arrest (decrease of BRDU incorporation) ([3]; compound 50 μM, doxorubicin 5 μM, U20S cells): almost completely prevented; also recorded: prevents a doxorubicin-induced decrease of BRDU incorporation
Doxorubicin-induced expression of p53 target genes (CCNE2, CCNG2, CDC2, CDC25A, CDKN1A, CDKN2A, GADD45A, E2F1, E2F3, PCNA, SESN1, SESN2) [4]: differentially reduce
Level or functional phosphorylation state of ATM and CHK1 ([5]; U20S cells, doxorubicin): did not affect
Expression of p53 target genes p21, PUMA and 14-3-3s induced by doxorubicin [5, 6]: significantly decreased
Levels of p53 protein, p53S15p and p53K382ac induced by doxorubicin [5, 6]: marked reduction
H3 acetylation at Lys9 [5, 7]: decrease
Histone H3 phosphorylation at Ser10 [5, 7]: increase
